# In paper PMC11791314 (The Journal of Biological Chemistry, 2024):
# Legend:
# [1] = target: T1, blood cell-specific α1/β1-tubulin (ChET), β1-tubulin (Gallus gallus, UniProt P02552+P09207); experiment: ([…] Å, C8 ring); mass photometry Kd-app; assay type: binding
# T1 construct: gene TUBA1A; native α1/β1-tubulin purified from the marginal band of chicken erythrocytes; with α1-tubulin (TUBA1A, P02552)
# [2] = target: T2, bovine brain tubulin (BBT), αβ-tubulin heterodimer; experiment: mass photometry of ring assembly (Kd-app); assay type: binding, Bos taurus
# T2 construct: native bovine brain αβ-tubulin (isotype mixture, PurSolutions)
# [3] = system: T3, HeLa cell line tubulin (HeLaT), αβ-tubulin heterodimer; experiment: mass photometry of ring assembly (Kd-app); assay type: binding
# T3 construct: native αβ-tubulin purified from cultured HeLa cells (isotype mixture); with α1B-tubulin
# α1-tubulin (ChET) = target: T4, α1-tubulin (ChET) (Gallus gallus, UniProt P02552); experiment: cryo-EM structure ([…] Å); assay type: binding
# T4 construct: gene TUBA1A; native α1/β1-tubulin from chicken erythrocytes, Cp-52 C8 ring; with β1-tubulin (TUBB1, P09207)
# T4 sequence (P02552 whole entry): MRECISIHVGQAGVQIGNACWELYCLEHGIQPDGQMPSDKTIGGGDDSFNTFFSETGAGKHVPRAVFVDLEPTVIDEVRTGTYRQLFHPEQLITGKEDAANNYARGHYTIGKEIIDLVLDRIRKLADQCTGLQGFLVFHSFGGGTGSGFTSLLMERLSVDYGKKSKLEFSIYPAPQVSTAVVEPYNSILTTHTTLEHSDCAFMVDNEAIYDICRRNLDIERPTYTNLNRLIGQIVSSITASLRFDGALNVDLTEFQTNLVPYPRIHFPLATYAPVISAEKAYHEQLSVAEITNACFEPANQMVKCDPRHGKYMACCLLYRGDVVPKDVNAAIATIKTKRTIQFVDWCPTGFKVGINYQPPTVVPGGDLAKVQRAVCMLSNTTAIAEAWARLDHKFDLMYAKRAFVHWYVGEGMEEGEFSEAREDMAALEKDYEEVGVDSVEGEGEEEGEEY
# T4 sequence (P09207 whole entry partner): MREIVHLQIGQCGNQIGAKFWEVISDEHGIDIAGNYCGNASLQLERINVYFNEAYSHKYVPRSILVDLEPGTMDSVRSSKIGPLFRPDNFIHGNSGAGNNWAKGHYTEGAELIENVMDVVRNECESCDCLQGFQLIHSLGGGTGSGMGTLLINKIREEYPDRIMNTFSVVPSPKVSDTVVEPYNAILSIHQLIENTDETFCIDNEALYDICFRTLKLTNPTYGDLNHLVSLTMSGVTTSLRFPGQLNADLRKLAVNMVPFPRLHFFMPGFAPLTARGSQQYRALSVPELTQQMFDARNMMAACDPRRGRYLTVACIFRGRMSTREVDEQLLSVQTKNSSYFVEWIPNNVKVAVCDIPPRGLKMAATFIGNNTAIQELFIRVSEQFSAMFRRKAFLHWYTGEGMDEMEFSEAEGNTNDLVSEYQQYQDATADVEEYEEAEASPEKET
# T1 sequence (P02552 whole entry): as the sequence (P02552 whole entry) above
# T1 sequence (P09207 whole entry): as the sequence (P09207 whole entry partner) above
SMILES,Kd [1] [nM],Kd [2] [nM],Kd [3] [nM],cryo-EM structure (3.2 Å) (α1-tubulin (ChET))
"COc1ccc(C[C@H]2NC(=O)/C=C/C[C@@H]([C@H](C)[C@H]3O[C@@H]3c3ccccc3)OC(=O)[C@H](CC(C)C)OC(=O)C(C)(C)CNC2=O)cc1Cl [Cp-52, cryptophycin-52]",65 ± 17,172 ± 36,25 ± 7,
Nc1nc2c(ncn2[C@@H]2O[C@H](COP(=O)(O)OP(=O)(O)OP(=O)(O)O)[C@@H](O)[C@H]2O)c(=O)[nH]1 [GTP],,,,comprises one copy of α1-tubulin with its bound GTP
